Test results published in patent US20080306056A1, “PYRAZOLE-DERIVATIVES AS FACTOR Xa INHIBITORS” (SANOFI-AVENTIS DEUTSCHLAND GMBH, priority 2002, published 2008).

Biological target: T1, human factor Xa (Homo sapiens, UniProt P00742)
T1 construct: 25 μl human factor Xa (Enzyme Research Laboratories, Inc; South Bend, Ind.); purchased Enzyme Research Laboratories, Inc; South Bend, Ind
Assay: Factor Xa assay (chromogenic, purified enzyme)
Type: biochemical
Settings: inhibition constant for factor Xa; chromogenic substrate S-2765 140 μM, enzyme 0.5 nM, 25° C., pH 7.8; Ki=IC50/{1+(substrate concentration/Km)}; read-out: Ki(FXa)
Description: The ability of the compound of formulae I, Ib and Ic to inhibit factor Xa or factor VIIa or other enzymes like thrombin, plasmin, or trypsin can be assessed by determining the concentration of the compound of the formulae I, Ib and Ic that inhibits enzyme activity by 50%, i.e. the IC50 value, which was related to the inhibition constant Ki. Purified enzymes were used in chromogenic assays. The concentration of inhibitor that causes a 50% decrease in the rate of substrate hydrolysis was determined by linear regression after plotting the relative rates of hydrolysis (compared to the uninhibited control) versus the log of the concentration of the compound of formulae I, Ib and Ic. For calculating the inhibition constant Ki, the IC50 value was corrected for competition with substrate using the formula wherein Km is the Michaelis-Menten constant (Chen and Prusoff, Biochem.
Ki=IC50/{1+(substrate concentration/Km)}
Pharmacol. 22 (1973) 3099-3108; I. H. Segal, Enzyme Kinetics, 1975, John Wiley & Sons, New York, 100-125; which were incorporated herein by reference).
The IC50 was determined by combining in appropriate wells of a Costar half-area microtiter plate 25 μl human factor Xa (Enzyme Research Laboratories, Inc.; South Bend, Ind.) in TBS-PEG; 40 μl 10% (v/v) DMSO in TBS-PEG (uninhibited control) or various concentrations of the compound to be tested diluted in 10% (v/v) DMSO in TBS-PEG; and substrate S-2765 (N(α)-benzyloxycarbonyl-D-Arg-Gly-L-Arg-p-nitroanilide; Kabi Pharmacia, Inc.; Franklin, Ohio) in TBS-PEG.
The assay was performed by pre-incubating the compound of formulae I, Ib and Ic plus enzyme for 10 min. Then the assay was initiated by adding substrate to obtain a final volume of 100 μl. The initial velocity of chromogenic substrate hydrolysis was measured by the change in absorbance at 405 nm using a Bio-tek Instruments kinetic plate reader (Ceres UV900HDi) at 25° C. during the linear portion of the time course (usually 1.5 min after addition of substrate). The enzyme concentration was 0.5 nM and substrate concentration was 140 μM.
The inhibitory activity towards factor VIIa/tissue factor activity was determined using a chromogenic assay essentially as described previously (J. A. Ostrem et al., Biochemistry 37 (1998) 1053-1059 which was incorporated herein by reference). Kinetic assays were conducted at 25° C. in half-area microtiter plates (Costar Corp., Cambridge, Mass.) using a kinetic plate reader (Molecular Devices Spectramax 250). A typical assay consisted of 25 μl human factor VIIa and TF (5 nM and 10 nM, respective final concentration) combined with 40 μl of inhibitor dilutions in 10% DMSO/TBS-PEG buffer (50 mM Tris, 15 mM NaCl, 5 mM CaCl2, 0.05% PEG 8000, pH 8.15). Following a 15 minute preincubation period, the assay was initiated by the addition of 35 μl of the chromogenic substrate S-2288 (D-Ile-Pro-Arg-p-nitroanilide, Pharmacia Hepar Inc., 500 μM final concentration).

T1 sequence (P00742 235-488 limits assumed): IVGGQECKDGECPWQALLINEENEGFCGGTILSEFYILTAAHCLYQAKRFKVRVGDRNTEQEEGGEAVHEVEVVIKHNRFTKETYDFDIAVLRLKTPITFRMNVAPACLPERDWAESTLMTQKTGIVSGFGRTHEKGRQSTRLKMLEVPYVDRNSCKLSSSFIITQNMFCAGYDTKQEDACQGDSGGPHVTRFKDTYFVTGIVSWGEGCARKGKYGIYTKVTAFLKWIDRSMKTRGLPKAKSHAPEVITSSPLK
T1 sequence (P00742 41-179 partner limits assumed): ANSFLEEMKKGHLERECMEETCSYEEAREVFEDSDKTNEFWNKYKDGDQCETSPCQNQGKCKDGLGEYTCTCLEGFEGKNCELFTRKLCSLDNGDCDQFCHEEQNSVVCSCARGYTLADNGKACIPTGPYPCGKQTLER

| SMILES | Ki [nM] |
| --- | --- |
| CC(C)N1CCC(NC(=O)c2cc(C(=O)N3CCCC3)nn2Cc2cc(-c3ccc(Cl)s3)on2)CC1 [Example 48, 2-[5-(5-Chloro-thiophen-2-yl)-isoxazol-3-ylmethyl]-5-(pyrrolidine-1-carbonyl)-2H-pyrazole-3-carboxylic acid (1-isopropyl-piperidin-4-yl)-amide] | 183 |
| CC(C)N1CCC(NC(=O)c2cc(C(=O)N3CCC(F)(F)CC3)nn2Cc2cc(-c3ccc(Cl)s3)on2)CC1 [Example 71, 2-[5-(5-Chloro-thiophen-2-yl)-isoxazol-3-ylmethyl]-5-(4,4-difluoro-piperidine-1-carbonyl)-2H-pyrazole-3-carboxylic acid (1-isopropyl-piperidin-4-yl)-amide] | 184 |
| CC(C)N1CCC(NC(=O)c2c(C#N)cnn2CC(=O)Nc2ccc(Cl)cc2)CC1 [Example 57, 2-[(4-Chloro-phenylcarbamoyl)-methyl]-4-cyano-2H-pyrazole-3-carboxylic acid (1-isopropyl-piperidin-4-yl)-amide] | 410 |
| CC(C)N1CCC(NC(=O)c2cc(C(=O)N3CCSC3)nn2Cc2cc(-c3ccc(Cl)s3)on2)CC1 [Example 78, 2-[5-(5-Chloro-thiophen-2-yl)-isoxazol-3-ylmethyl]-5-(thiazolidine-3-carbonyl)-2H-pyrazole-3-carboxylic acid (1-isopropyl-piperidin-4-yl)-amide] | 144 |
| CC(C)N1CCC(NC(=O)c2cc(C(=O)NC(CO)(CO)CO)nn2Cc2cc(-c3ccc(Cl)s3)on2)CC1 [Example 89, 1-[5-(5-Chloro-thiophen-2-yl)-isoxazol-3-ylmethyl]-1H-pyrazole-3,5-dicarboxylic acid 3-[(2-hydroxy-1,1-bis-hydroxymethyl-ethyl)-amide] 5-[(1-isopropyl-piperidin-4-yl)-amide]] | 192 |
| CC(C)N1CCC(NC(=O)c2cc(C(=O)N3CC[C@H]3C(=O)O)nn2Cc2cc(-c3ccc(Cl)s3)on2)CC1 [Example 63, 1-[1-[5-(5-Chloro-thiophen-2-yl)-isoxazol-3-ylmethyl]-5-(1-isopropyl-piperidin-4-ylcarbamoyl)-1H-pyrazole-3-carbonyl]-(2S)-azetidine-2-carboxylic acid] | 134 |
| CC(C)N1CCC(NC(=O)c2cc(C(=O)NC3=NCCO3)nn2Cc2cc(-c3ccc(Cl)s3)on2)CC1 [Example 68, 1-[5-(5-Chloro-thiophen-2-yl)-isoxazol-3-ylmethyl]-1H-pyrazole-3,5-dicarboxylic acid 3-[(4,5-dihydro-oxazol-2-yl)-amide] 5-[(1-isopropyl-piperidin-4-yl)-amide]] | 99 |
| CC(C)N1CCC(NC(=O)c2cc(C(=O)N3CCC(S(C)(=O)=O)C3)nn2Cc2cc(-c3ccc(Cl)s3)on2)CC1 (stereo not drawn) [Example 39, 2-[5-(5-Chloro-thiophen-2-yl)-isoxazol-3-ylmethyl]-5-(3-methanesulfonyl-pyrrolidine-1-carbonyl)-2H-pyrazole-3-carboxylic acid (1-isopropyl-piperidin-4-yl)-amide] | 145 |
| CONC(=O)c1cc(C(=O)NC2CCN(C(C)C)CC2)n(Cc2cc(-c3ccc(Cl)s3)on2)n1 [Example 59, 1-[5-(5-Chloro-thiophen-2-yl)-isoxazol-3-ylmethyl]-1H-pyrazole-3,5-dicarboxylic acid 5-[(1-isopropyl-piperidin-4-yl)-amide] 3-(methoxy-amide)] | 94 |
| CC(C)N1CCC(NC(=O)c2cc(C(=O)NC3CC3)nn2Cc2cc(-c3ccc(Cl)s3)on2)CC1 [Example 45, 1-[5-(5-Chloro-thiophen-2-yl)-isoxazol-3-ylmethyl]-1H-pyrazole-3,5-dicarboxylic acid 3-cyclopropylamide 5-[(1-isopropyl-piperidin-4-yl)-amide]] | 61 |

More lines, in order of falling Ki, values ahead:

| Ki [nM] | SMILES |
| --- | --- |
| 262 | CC(C)N1CCC(NC(=O)c2cc(C(=O)N3CCN(CCO)CC3)nn2Cc2cc(-c3ccc(Cl)s3)on2)CC1 [Example 30, 2-[5-(5-Chloro-thiophen-2-yl)-isoxazol-3-ylmethyl]-5-[4-(2-hydroxy-ethyl)-piperazine-1-carbonyl]-2H-pyrazole-3-carboxylic acid (1-isopropyl-piperidin-4-yl)-amide] |
| 195 | CC(C)N1CCC(NC(=O)c2cc(C(=O)N3CCC(CO)CC3)nn2Cc2cc(-c3ccc(Cl)s3)on2)CC1 [Example 37, 2-[5-(5-Chloro-thiophen-2-yl)-isoxazol-3-ylmethyl]-5-(4-hydroxymethyl-piperidine-1-carbonyl)-2H-pyrazole-3-carboxylic acid (1-isopropyl-piperidin-4-yl)-amide] |
| 184 | CC(C)N1CCC(NC(=O)c2cc(C(=O)NS(C)(=O)=O)nn2Cc2cc(-c3ccc(Cl)s3)on2)CC1 [Example 82, 2-[5-(5-Chloro-thiophen-2-yl)-isoxazol-3-ylmethyl]-5-methanesulfonylaminocarbonyl-2H-pyrazole-3-carboxylic acid (1-isopropyl-piperidin-4-yl)-amide] |
| 177 | CCOC(=O)C1CCN(C(=O)c2cc(C(=O)NC3CCN(C(C)C)CC3)n(Cc3cc(-c4ccc(Cl)s4)on3)n2)CC1 [Example 69, 1-[1-[5-(5-Chloro-thiophen-2-yl)-isoxazol-3-ylmethyl]-5-(1-isopropyl-piperidin-4-ylcarbamoyl)-1H-pyrazole-3-carbonyl]-piperidine-4-carboxylic acid ethyl ester] |
| 101 | CCOC(=O)CNC(=O)c1cc(C(=O)NC2CCN(C(C)C)CC2)n(Cc2cc(-c3ccc(Cl)s3)on2)n1 [Example 61, {[1-[5-(5-Chloro-thiophen-2-yl)-isoxazol-3-ylmethyl]-5-(1-isopropyl-piperidin-4-ylcarbamoyl)-1H-pyrazole-3-carbonyl]-amino}-acetic acid ethyl ester] |
| 84 | CC(C)N1CCC(NC(=O)c2cc(C(=O)N3CCCOCC3)nn2Cc2cc(-c3ccc(Cl)s3)on2)CC1 [Example 42, 2-[5-(5-Chloro-thiophen-2-yl)-isoxazol-3-ylmethyl]-5-([1,4]oxazepane-4-carbonyl)-2H-pyrazole-3-carboxylic acid (1-isopropyl-piperidin-4-yl)-amide] |
| 80 | CC(C)N1CCC(NC(=O)c2cc(C(=O)NC(C(=O)O)C(F)(F)F)nn2Cc2cc(-c3ccc(Cl)s3)on2)CC1 (stereo not drawn) [Example 79, 2-{[1-[5-(5-Chloro-thiophen-2-yl)-isoxazol-3-ylmethyl]-5-(1-isopropyl-piperidin-4-ylcarbamoyl)-1H-pyrazole-3-carbonyl]-amino}-3,3,3-trifluoro-propionic acid] |
| 36 | CCOC(=O)CNC(=O)c1cc(C(=O)NC2CCN(C(C)C)CC2)n(CC(=O)Nc2ccc(Cl)cn2)n1 [Example 93, {[1-[(5-Chloro-pyridin-2-ylcarbamoyl)-methyl]-5-(1-isopropyl-piperidin-4-ylcarbamoyl)-1H-pyrazole-3-carbonyl]-amino}-acetic acid ethyl ester] |
| 23 | CC(C)N1CCC(NC(=O)c2cc(C(=O)NCC(=O)O)nn2CC(=O)Nc2ccc(Cl)cn2)CC1 [Example 94, {[1-[(5-Chloro-pyridin-2-ylcarbamoyl)-methyl]-5-(1-isopropyl-piperidin-4-ylcarbamoyl)-1H-pyrazole-3-carbonyl]-amino}-acetic acid] |
| 16 | COCCOC(=O)c1cc(C(=O)NC2CCN(C(C)C)CC2)n(CC(=O)Nc2ccc(Cl)cn2)n1 [Example 106, 1-[(5-Chloro-pyridin-2-ylcarbamoyl)-methyl]-5-(1-isopropyl-piperidin-4-ylcarbamoyl)-1H-pyrazole-3-carboxylic acid 2-methoxy-ethyl ester] |
| 11 | O=C(Nc1ccc(N2CCOCC2=O)cc1)c1cc(-c2ccco2)n(Cc2cc(-c3ccc(Cl)s3)on2)n1 [Example 99, 1-[5-(5-Chloro-thiophen-2-yl)-isoxazol-3-ylmethyl]-5-furan-2-yl-1H-pyrazole-3-carboxylic acid [4-(3-oxo-morpholin-4-yl)-phenyl]-amide] |
